Literature values, collected in patent US7012096B2, “Composition for pain mediation and apparatus and method of use thereof” (Palladin Healthcare International, Inc., priority 1998, dated 2006).

Legend:
[1] = test system: human keratinocytes; conditions: in vitro tissue culture
[2] = test system: human fibroblasts; conditions: in vitro tissue culture

CC(=O)O [acetic acid]
Concentration toxic to human keratinocytes [1]: above 0.025% | Concentration toxic to human fibroblasts [2]: above 0.025%
